Source: US5310667A (priority 1989, dated 1994)

Tested on: E. coli JM101 culture #215 (pMON8186)
Assay: Growth curve analysis in liquid MOPS medium with glyphosate
Assay type: cell-based
Settings: MOPS medium containing 10 mM glyphosate, 37° C.
Experimental: This growth curve analysis functioned as a tertiary screen and was performed in the following way:
Glyphosate resistant colonies were picked off the selection plates and inoculated individually into precultures containing 1 ml of MOPS medium and 50 μg/ml carbenicillin. The precultures were then grown to saturation by shaking the cultures overnight at 37° C. The next morning the density of each culture was determined by withdrawing a 100 μl aliquot from each and diluting it 10 fold with the addition of 900 μl MOPS medium, then reading the optical density at a wavelength of 660 nm in a spectrophotometer. The saturated precultures were then diluted to 1% by adding 50 μl from each saturated preculture to 5 ml of MOPS media containing 0, 5 or 10 mM glyphosate. The diluted precultures were grown in glass culture tubes fitted with stainless steel closures, rotating on a wheel at 37° C. The glass culture tubes were designed for direct reading in a Klett-Summerson photoelectric colorimeter, which was used to monitor the growth of the bacterial cultures at approximately 3 hour intervals.

Question: For `O=C(O)CNCP(=O)(O)O` [glyphosate, N-phosphonomethylglycine], which “time of growth to saturation” value is on record?
Answer: ≤ 11 h
